Measurements as given in US8748173B2 (priority 1998, dated 2014).
Where “and” joins values, the source holds several entries; their conditions need not be identical. Equal values may be shown once.

Tested on: Bacillus subtilis spores
Assay type: binding

Substance | concentration at which the peptide stained spores | binding to B. subtilis spores
Peptide 7183 consensus (RFTISRDNAKNTLYLQMSC; Peptide 7183 artificial peptide corresponding to consensus sequence in 7183 VH gene family.) [reference compound] | 200 μg/ml and 100 μM | 
Peptide Anti-spore (RFTISRDNPKNTLFLQMTC; Peptide Anti-spore artificial peptide corresponding to consensus sequence in the framework 3 region of antibodies against Bacillus subtilis spores.) | 2 μg/ml and 1 μM | bind strongly and specifically
